Reference: paper PMC6274259, “New 3-Cyano-2-Substituted Pyridines Induce Apoptosis in MCF 7 Breast Cancer Cells” (Molecules, 2016)

Columns and labels:
[1] = system: MDA-MB-231 human breast adenocarcinoma cell line; experiment: WST-1 cell viability assay, MDA-MB-231; type: cell-based; settings: Homo sapiens, MDA-MB-231; WST-1, 24 h treatment, mean ± S.D of three independent experiments
Excerpt: (§1) The synthesized compounds were screened for their cytotoxicity on five cancer cell lines, namely SK-OV-3, MCF-7, MDA-MB-231, HCT-116 and RKO, using a WST colorimetric assay. The assay principle is based upon the reduction of the tetrazolium salt WST-1 to formazan by cellular mitochondrial dehydrogenases present in viable cells. […] Among the latter compounds the benzohydrazide derivative 9a emerged with the lowest IC50 in this study against MCF-7 cells compared to 5-FU. […] Based on the fact that 9a had less cytotoxic effects on normal breast epithelial cells it was subjected to further studies.
(§2) The following cell lines were used for the screening stage, obtained from the American Type Culture Collection (ATCC, Manassas, VA, USA); SK-OV-3 (HTB-77), MCF-12A (ATCC CRL-10782), MDA-MB-231 (ATCC HTB-26), HCT-116 (CCL-247), RKO (CRL-2577) and sub-culturing of the above cell lines was conducted in 75 cm^2 flasks. The old culture media was removed and discarded after assessing the confluency of the cells and the cells were rinsed with 2–3 mL diluted trypsin (1×) (trypsin/EDTA solution consists of 0.025% trypsin and 0.01% EDTA in PBS), for about 5 minutes for complete detachment. The cells were observed under the inverted microscope until the cell layer is completely dispersed. 75 cm^2 flasks were prepared and 16 mL of DMEM media for SK-OV-3, MCF-7, MDA-MB-231, (DMEM 4500 mg glucose) and RPMI media for HCT-116 were added to each flask. The cells were aspirated gently and added to the flasks. DMEM 4500 mg/L high glucose with 10% FBS, 5% streptomycin and penicillin, RPMI 1640 (prepared by adding 5% heat-inactivated FCS and 2 mm glutamine) were used. DMEM was also used for MCF-12A cells with the addition of human epidermal growth factor 20 ng/mL, insulin 0.01 mg/mL and hydrocortisone 500 ng/mL.
(§3) The synthesized compounds were screened for their anti-proliferative activity using 5-FU (F6627-1G, Sigma-Aldrich, St. Louis, MO, USA) as reference compound. A concentration of 0.4% DMSO was used in all experiment after ensuring 100% viability of the cell lines with this concentration. A 25 mM stock concentration of all compounds was prepared for further studies and analysis.
(§4) Cells were trypsinized and placed in a 15 mL Falcon tube, the cells were centrifuged for 3 min at 1000 rpm. Trypsin is decanted using a sterile pipette and then the pellet is loosened by flicking the tube few times then 5–10 mL warm DMEM or RPMI were added to the Falcon tube and the pellet is resuspended. Cell count was done next by taking 10 μL of the suspension into the cell counting slide and read under 10× cells/mL. A cell stock of 50,000 cells/mL was prepared for the 96 wells. Cells (100 μL) were added to each well using a sterile pipette each time to ensure consistency. The experiment was planned ahead of time using excel sheet, 3–6 wells were reserved as blank media while 3–6 wells for vehicle (DMSO). The plate was incubated for 24 h for compound treatment step. DMEM media was used to prepare different dilutions of the compounds. The old DMEM media was removed from the wells using sterile pipette in the hood and the media was replaced with 100 μL media with each compound. The plate was incubated for 24 h. After 24 h incubation, WST-1 reagent (Sigma) was added to each well and then the plate was incubated for 1 h before measuring the absorbance using VICTOR™ Multilabel Plate Reader (Perkin Elmer, Beaconsfield, UK). The absorbance of the colored solution can be quantified by measuring at a certain wavelength (usually between 500–600 nm), in this experiment the first reading was conducted at 540 nm and the second reading at 690 nm for the reference wavelength. The percentage of cell viability was determined as the ratio of the absorbance of the sample vs the control. Three independent experiments were performed. […] 5-Florouracil (Sigma-Aldrich, F6627-1G) was used as reference standard.

[2] = system: MCF-7 cells; experiment: TUNEL assay; type: cell-based, human; settings: 2 μM, 24 h, compared to control group
Excerpt: To ascertain induction of apoptosis of compound 9a on MCF-7 cells, the results were confirmed by immune histochemical analysis using a TUNEL assay. TUNEL assay involves labeling of the 3'-hydroxyl DNA ends generated during DNA fragmentation by means of rTdT and labeled dUTP. The localized fluorescence of apoptotic cells (labeled-dUTP) in a blue background (DAPI) for nuclei staining or green background (FITC) was visualized using fluorescence microscope.
For in situ detection of apoptotic cells, a terminal-deoxynucleotidyl transferase meditated nick end labeling (TUNEL) assay was performed using DeadEndTM fluorimetric tunnel system (Promega, Madison, WI, USA). Cells were cultured on 4-chamber slides (VWR, Radnor, PA, USA) at a density of 2 × 10^4 cells/ chamber. After treatment with compound 9a, cells were washed with phosphate buffer saline (PBS) and fixed by incubation in 4% paraformaldehyde (PFA) for 20 min at 4 °C, then permeabilized with 0.05% Triton X-100 for 5 min at 4 °C. The fixed cells were then incubated with […] dUTP in terminal deoxynucleotide transferase recombinant (rTdT)-catalyzed reaction and nucleotide mixture for 60 min at 37 °C in a humidified atmosphere and then immersed in stop/wash buffer for 15 min at room temperature. Cells were then washed with PBS to remove unincorporated fluorescein-12-dUTP. […]

[3] = system: RKO human colon carcinoma cell line; experiment: WST-1 cell viability assay, RKO; type: cell-based; settings: Homo sapiens, Colon carcinoma cell; WST-1, 24 h treatment, mean ± S.D of three independent experiments
Excerpt: as §1, §2, §3, §4

Question: For `COc1ccc(-c2cc(-c3ccc(OC)c(OC)c3)c(C#N)c(OCC(=O)NNC(=O)c3ccccc3)n2)cc1OC` [Compound 9a, N'-[2-(3-cyano-4,6-bis(3,4-dimethoxyphenyl)pyridin-2-yloxy)acetyl]benzohydrazide], which IC50 [1] is on record?
Answer: 22.3 ± 0.88 µM

Question: And the TUNEL staining [2]?
Answer: presence of nuclear condensation and TUNEL-positive cells

Question: What about the IC50 [3] of the same compound?
Answer: 8.22 ± 0.99 µM
